Tests used:
[1] = molecular target: T1, ryanodine receptor 1 (RyR1) (Homo sapiens, UniProt P21817); assay: Fura-2 Ca2+ imaging, inhibition of Ca2+ release induced by […] ryanodine; type: cell-based
T1 construct: wild-type human skeletal myotubes

[2] = molecular target: T2, ryanodine receptor 1 (RyR1) (Oryctolagus cuniculus, UniProt P11716); assay: protection from AziPm photolabelling ([…] propofol) in purified RyR1; the IC50 is from [3H]ryanodine binding in wild-type heavy SR vesicles at pCa […] (species not given, assumed)
T2 construct: full-length RyR1 purified from wild-type rabbit skeletal muscle; with FKBP12.6
T2 sequence (P11716 whole entry): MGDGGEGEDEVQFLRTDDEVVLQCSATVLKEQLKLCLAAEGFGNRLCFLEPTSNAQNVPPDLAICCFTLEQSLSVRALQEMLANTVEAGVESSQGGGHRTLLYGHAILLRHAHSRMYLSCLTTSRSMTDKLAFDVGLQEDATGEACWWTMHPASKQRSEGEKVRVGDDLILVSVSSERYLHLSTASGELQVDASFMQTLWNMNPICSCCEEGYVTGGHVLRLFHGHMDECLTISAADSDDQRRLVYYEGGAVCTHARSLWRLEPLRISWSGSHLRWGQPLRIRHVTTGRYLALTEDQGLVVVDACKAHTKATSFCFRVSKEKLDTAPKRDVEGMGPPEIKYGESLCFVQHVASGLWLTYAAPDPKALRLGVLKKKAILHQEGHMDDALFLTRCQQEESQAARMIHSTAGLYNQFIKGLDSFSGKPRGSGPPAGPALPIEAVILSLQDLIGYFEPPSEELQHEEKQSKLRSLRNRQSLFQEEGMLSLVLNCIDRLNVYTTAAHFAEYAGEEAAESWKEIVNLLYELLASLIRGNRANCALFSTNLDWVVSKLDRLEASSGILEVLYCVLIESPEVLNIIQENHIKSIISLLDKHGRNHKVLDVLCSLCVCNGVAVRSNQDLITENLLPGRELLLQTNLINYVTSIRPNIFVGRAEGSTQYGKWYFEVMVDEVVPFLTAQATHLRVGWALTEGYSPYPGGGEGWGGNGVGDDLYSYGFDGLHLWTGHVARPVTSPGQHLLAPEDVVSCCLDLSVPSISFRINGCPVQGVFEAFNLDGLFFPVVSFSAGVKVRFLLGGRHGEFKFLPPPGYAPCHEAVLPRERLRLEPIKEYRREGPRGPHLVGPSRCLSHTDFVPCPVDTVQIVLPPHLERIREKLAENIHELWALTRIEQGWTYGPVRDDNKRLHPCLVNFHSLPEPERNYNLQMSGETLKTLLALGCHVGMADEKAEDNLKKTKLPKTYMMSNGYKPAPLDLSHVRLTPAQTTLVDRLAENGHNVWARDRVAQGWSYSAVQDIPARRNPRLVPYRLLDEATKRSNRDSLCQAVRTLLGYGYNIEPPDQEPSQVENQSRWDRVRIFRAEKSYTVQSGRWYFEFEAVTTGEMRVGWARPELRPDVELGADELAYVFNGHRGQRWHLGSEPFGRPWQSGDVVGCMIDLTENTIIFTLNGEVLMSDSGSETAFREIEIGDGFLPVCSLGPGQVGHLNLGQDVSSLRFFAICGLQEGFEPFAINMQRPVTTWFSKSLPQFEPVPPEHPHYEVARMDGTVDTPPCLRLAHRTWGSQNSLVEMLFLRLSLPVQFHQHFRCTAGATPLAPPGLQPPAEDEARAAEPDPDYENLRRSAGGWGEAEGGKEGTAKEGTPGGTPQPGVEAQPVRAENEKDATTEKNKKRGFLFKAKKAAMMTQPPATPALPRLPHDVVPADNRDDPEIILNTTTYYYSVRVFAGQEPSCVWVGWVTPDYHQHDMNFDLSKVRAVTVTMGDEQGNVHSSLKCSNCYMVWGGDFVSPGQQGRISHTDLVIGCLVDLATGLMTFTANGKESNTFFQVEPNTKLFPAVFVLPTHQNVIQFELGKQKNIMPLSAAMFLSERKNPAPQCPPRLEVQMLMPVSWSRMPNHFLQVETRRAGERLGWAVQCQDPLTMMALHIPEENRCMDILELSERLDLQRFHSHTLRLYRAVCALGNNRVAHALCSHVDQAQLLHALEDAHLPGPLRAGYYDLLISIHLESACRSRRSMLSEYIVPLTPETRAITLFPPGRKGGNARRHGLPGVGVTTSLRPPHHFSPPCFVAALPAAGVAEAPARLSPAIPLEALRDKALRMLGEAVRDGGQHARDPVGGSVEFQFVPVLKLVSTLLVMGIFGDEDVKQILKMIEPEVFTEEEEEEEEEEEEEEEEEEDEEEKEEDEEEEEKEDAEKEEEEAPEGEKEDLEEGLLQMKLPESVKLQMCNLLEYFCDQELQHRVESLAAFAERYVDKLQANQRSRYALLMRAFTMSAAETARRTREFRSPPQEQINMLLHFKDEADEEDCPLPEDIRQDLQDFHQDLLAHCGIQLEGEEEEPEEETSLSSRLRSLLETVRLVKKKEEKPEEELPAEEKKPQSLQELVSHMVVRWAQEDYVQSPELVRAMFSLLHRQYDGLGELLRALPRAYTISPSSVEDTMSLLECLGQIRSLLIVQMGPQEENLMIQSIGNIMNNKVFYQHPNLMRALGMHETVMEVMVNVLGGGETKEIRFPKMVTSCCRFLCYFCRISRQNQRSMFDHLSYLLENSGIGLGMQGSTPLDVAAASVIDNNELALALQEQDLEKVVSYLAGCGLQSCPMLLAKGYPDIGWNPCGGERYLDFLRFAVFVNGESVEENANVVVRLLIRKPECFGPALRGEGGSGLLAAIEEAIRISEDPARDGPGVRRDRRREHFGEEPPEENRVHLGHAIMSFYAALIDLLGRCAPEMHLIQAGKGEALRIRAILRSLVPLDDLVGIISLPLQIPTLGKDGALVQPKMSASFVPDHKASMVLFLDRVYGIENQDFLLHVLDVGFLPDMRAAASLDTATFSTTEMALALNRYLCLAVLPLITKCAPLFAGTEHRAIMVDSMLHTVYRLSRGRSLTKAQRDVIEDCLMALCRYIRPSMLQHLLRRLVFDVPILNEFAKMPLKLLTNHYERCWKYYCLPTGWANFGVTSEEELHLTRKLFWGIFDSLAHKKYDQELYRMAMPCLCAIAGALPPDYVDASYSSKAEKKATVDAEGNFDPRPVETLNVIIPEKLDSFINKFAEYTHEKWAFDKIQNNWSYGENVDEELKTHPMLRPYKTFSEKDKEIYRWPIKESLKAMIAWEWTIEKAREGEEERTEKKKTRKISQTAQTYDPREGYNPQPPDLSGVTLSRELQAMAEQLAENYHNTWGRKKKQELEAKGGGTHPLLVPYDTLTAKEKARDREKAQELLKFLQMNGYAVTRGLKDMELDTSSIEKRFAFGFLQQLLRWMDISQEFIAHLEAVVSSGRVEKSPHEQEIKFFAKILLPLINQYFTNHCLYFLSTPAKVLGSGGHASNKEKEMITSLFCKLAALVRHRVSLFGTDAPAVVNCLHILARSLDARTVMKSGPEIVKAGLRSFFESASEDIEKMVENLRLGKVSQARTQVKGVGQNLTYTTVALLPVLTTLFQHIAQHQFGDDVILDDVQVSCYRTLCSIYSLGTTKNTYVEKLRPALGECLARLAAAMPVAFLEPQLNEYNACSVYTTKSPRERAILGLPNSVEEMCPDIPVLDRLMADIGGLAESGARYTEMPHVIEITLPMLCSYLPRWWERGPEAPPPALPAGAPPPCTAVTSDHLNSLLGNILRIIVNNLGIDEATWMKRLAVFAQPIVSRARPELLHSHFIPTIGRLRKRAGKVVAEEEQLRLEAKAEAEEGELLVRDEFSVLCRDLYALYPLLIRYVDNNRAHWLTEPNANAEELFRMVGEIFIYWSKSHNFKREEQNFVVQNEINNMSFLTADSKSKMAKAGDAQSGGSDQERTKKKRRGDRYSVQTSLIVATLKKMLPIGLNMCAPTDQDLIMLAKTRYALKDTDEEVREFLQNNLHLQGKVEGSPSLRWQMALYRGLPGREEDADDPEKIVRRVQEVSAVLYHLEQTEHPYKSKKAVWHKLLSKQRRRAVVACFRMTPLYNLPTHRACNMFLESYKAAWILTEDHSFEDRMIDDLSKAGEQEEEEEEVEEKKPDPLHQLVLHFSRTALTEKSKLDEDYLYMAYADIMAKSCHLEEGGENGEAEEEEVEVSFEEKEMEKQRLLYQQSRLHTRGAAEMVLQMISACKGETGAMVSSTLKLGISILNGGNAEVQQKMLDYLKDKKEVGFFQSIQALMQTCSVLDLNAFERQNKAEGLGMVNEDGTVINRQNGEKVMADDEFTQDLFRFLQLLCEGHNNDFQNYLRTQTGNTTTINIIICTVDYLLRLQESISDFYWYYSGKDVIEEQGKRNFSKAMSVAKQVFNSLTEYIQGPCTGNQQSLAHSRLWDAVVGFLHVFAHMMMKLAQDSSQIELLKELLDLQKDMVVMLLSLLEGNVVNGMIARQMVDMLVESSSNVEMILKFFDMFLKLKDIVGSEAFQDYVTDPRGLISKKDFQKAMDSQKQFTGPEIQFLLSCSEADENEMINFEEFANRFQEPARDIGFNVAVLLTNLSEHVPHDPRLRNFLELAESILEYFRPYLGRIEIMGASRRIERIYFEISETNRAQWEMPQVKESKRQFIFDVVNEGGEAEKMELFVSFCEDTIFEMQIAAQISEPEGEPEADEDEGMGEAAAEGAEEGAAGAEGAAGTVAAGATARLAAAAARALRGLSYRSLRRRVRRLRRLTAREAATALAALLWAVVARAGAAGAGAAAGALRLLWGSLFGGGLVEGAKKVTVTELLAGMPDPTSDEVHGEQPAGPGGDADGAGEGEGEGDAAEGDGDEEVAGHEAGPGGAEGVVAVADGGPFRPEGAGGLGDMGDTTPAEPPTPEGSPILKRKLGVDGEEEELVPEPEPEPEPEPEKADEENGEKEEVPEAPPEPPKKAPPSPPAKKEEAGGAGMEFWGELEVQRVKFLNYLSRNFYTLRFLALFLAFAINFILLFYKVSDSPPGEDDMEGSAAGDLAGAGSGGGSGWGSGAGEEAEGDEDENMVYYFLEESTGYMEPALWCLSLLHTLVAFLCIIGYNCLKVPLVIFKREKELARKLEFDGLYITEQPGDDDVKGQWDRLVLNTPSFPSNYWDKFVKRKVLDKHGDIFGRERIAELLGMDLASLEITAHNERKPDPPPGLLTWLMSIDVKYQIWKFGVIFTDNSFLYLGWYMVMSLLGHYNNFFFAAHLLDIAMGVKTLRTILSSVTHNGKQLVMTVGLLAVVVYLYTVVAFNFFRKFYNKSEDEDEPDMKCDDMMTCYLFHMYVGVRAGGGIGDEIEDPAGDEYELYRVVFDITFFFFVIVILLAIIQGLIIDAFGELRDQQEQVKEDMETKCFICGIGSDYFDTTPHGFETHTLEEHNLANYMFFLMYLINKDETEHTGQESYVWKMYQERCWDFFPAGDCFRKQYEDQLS

[3] = molecular target: T2, ryanodine receptor 1 (RyR1); assay: photoaffinity labelling of purified RyR1-FKBP12.[…] with MS; the IC50 is from [3H]ryanodine binding in wild-type heavy SR vesicles at pCa […] (species not given, assumed)

CC(C)c1cccc(C(C)C)c1O [Propofol]
IC50 [1]: 29.5 µM | IC50 [2]: 5.8 µM

CC(C)c1ccc(C2(C(F)(F)F)N=N2)cc1O [m-azipropofol]
IC50 [3]: 6.9 µM
